# Key:
# [1] = system: Vesicular stomatitis virus; test: Antiviral activity against Vesicular stomatitis virus; format: functional, organism-based
# Vaccinia virus = test: Antiviral activity against Vaccinia virus; format: functional, organism-based; settings: Orthopoxvirus vaccinia
# Human betaherpesvirus 5 = test: Antiviral activity against HCMV infected in HEL cells assessed as inhibition of virus-induced cytopathic effect after 6 days; format: functional, organism-based; settings: Human betaherpesvirus 5, HEL, 144 h
# [2] = target: T1, Inosine-uridine preferring nucleoside hydrolase (Crithidia fasciculata, UniProt Q27546); test: Inhibition of Crithidia fasciculata inosine-uridine nucleoside hydrolase expressed in Escherichia coli using p-nitrophenyl beta-D-ribofuranoside as substrate by xanthine oxidase coupled enzyme assay
# T1 sequence (Q27546 whole entry): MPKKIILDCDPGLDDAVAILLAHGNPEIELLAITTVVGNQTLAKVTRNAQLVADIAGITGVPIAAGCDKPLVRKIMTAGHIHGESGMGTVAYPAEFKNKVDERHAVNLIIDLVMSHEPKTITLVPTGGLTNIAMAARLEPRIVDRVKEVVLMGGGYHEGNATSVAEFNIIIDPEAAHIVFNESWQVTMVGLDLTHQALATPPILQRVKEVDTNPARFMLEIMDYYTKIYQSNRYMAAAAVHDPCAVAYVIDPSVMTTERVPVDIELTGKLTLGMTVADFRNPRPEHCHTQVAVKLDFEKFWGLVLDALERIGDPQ
# [3] = Inhibition of Trichomonas vaginalis purine nucleoside phosphorylase using […] as substrate by xanthine oxidase coupled enzyme assay
# [4] = target: T2, Inosine-adenosine-guanosine-nucleoside hydrolase (Trypanosoma brucei brucei, UniProt O15727); test: Inhibition of Trypanosoma brucei brucei inosine-adenosine-guanosine nucleoside hydrolase expressed in Escherichia coli
# T2 sequence (O15727 whole entry): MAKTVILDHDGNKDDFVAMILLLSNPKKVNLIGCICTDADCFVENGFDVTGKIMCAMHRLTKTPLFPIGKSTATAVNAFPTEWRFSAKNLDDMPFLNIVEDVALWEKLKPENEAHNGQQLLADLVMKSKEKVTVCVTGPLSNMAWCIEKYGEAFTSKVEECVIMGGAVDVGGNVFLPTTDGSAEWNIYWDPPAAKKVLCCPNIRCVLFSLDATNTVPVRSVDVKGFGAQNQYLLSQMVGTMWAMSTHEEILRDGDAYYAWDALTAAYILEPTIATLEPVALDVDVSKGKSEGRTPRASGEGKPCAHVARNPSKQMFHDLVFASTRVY
# [5] = Cytostatic activity against mouse L1210/0 cells; format: functional, cell-based
# CCRF-CEM [6] = test: Cytostatic activity against human CEM cells; format: functional
# MOLT-4 = test: Cytostatic activity against human Molt4/C8 cells; format: functional, cell-based
# [7] = system: unidentified influenza virus; test: Antiviral activity against Influenza virus; format: functional
# [8] = Antiproliferative activity against human Molt4/C8 cells; format: functional, cell-based; settings: MOLT-4
# Human alphaherpesvirus 2 = test: Antiviral activity against Herpes simplex virus 2 G assessed as inhibition of virus-induced cytopathic effect by cell based assay; format: functional; settings: Human alphaherpesvirus 2, strain G
# Human alphaherpesvirus 1 = test: Antiviral activity against Herpes simplex virus 1 KOS assessed as inhibition of virus-induced cytopathic effect by cell based assay; format: functional; settings: Human alphaherpesvirus 1, KOS
# [9] = system: Human immunodeficiency virus 1; test: Antiviral activity against HIV1 infected in human MT4 cells assessed as inhibition of virus-induced cytopathic effect; format: functional, organism-based; settings: Human immunodeficiency virus 1, MT4
# CCRF-CEM [10] = test: Growth inhibition of human CCRF-CEM cells; format: functional, cell-based
# Hepatitis C virus = test: Antiviral activity against Hepatitis C virus; format: functional, organism-based, Hepacivirus hominis
# [11] = Antiproliferative activity against mouse L1210/0 cells; format: functional, cell-based
# [12] = Cytotoxicity against MDCK cells; format: cell-based, Canis lupus familiaris; settings: dog
# [13] = Cytotoxicity against African green monkey Vero cells; format: cell-based; settings: chlorocebus sabaeus
# [14] = Cytotoxicity against human HeLa cells; format: cell-based
# [15] = Cytotoxicity against human E6SM cells; format: cell-based
# [16] = Cytotoxicity against human CEM/0 cells; format: cell-based, CCRF-CEM
# [17] = Cytotoxicity against HEL cells; format: cell-based; settings: human
# [18] = Binding affinity to HSV1 uracil-DNA glycosylase after 30 mins by electrophoretic mobility shift assay; parameters: species or system Human alphaherpesvirus 1
# Influenza A virus = test: Antiviral activity against Influenza A virus; format: functional, organism-based
compound,measurement,setting,value
Cc1ccc(S(=O)(=O)OC[C@H]2OC[C@@H]3OCO[C@@H]32)cc1,IC50,[1],> 400 µg/mL
same,IC50,Vaccinia virus,> 400 µg/mL
Nc1ncnc2c1ncn2CC1(CO)CC=CC1,EC50,Human betaherpesvirus 5,78.1 µM
Nc1ncnc2c1ncn2C[C@@H]1N[C@H](CO)[C@@H](O)[C@H]1O,Ki,[2],5.4 µM
same,Ki,[3],> 10 µM
same,Ki,[4],3.6 µM
CC1(C)[C@@H](CO)CC[C@@]1(C)Cn1cnc2c(Cl)ncnc21,Activity,[5],13 µg/mL
same,Activity,CCRF-CEM [6],14 µg/mL
same,Activity,MOLT-4,9 µg/mL
CC1(C)[C@@H](Cn2cnc3c(Cl)ncnc32)CC[C@@]1(C)CO,MIC,[7],10 µg/mL
same,IC50,[8],3.8 µg/mL
Nc1nc2c(ncn2C[C@H]2C[C@H](O)[C@@H](CO)O2)c(=O)[nH]1,MIC,Human alphaherpesvirus 2,5 µg/mL
same,MIC,Human alphaherpesvirus 1,5 µg/mL
Nc1ccn(CC2(CO)CC=CC2)c(=O)n1,EC50,[9],56.4 µM
Clc1ncnc2c1ncn2CC12CCC(O1)c1cc3ccccc3cc12 (stereo unspecified),IC50,CCRF-CEM [10],5.73 µM
same,EC50,Hepatitis C virus,6.31 µM
Nc1ncnc2c1ncn2C[C@H]1CC[C@@H](CO)C1,IC50,[11],73 µg/mL
same,CC50,[12],80 µg/mL
same,CC50,[13],80 µg/mL
same,CC50,[14],80 µg/mL
same,CC50,[15],80 µg/mL
same,IC50,[8],73 µg/mL
same,CC50,[16],80 µg/mL
same,CC50,[17],80 µg/mL
O=c1ccn(C[C@H]2C[C@H](O)[C@@H](CO)O2)c(=O)[nH]1,Kd,[18],0.16 µM
same,IC50,Influenza A virus,94.2 µg/mL
